Laboratory results published in patent US5545547A, “Enzymes as agricultural chemical adjuvants” (priority 1992, dated 1996).

Columns and labels:
Assay in all cases: Greenhouse multispecies herbicide screen with/without P. mendocina enzyme
Format in all cases: in vivo
Turnip = details: one week after treatment
Excerpt: (§1) Several plant species including weeds and crops are used in these experiments.
(§2) A number of herbicides from various chemical classes were compared in a multispecies screen for percent chlorosis, necrosis and vigor reduction both with and without application of the enzyme from Pseudomonas mendocina ATCC 53552 described earlier. The herbicides were applied to various plants at the manufacturers recommended doses and at 10% and 40% of the recommended dose. Two different enzyme concentrations were used: 0.5 mg/ml (HE) and 0.05 mg/ml (LE) and applied at the rate of 40 gallons/acre. All spraying solutions were at pH 10 and contained 100 mm sodium phosphate each. Ratings were done at 6 and 12 days after the treatment. All the experiments were carried out in a greenhouse.
(§3) Chlorosis--figures represent percent of plants showing chlorosis.
(§4) Necrosis--figures represent percent of plants showing necrosis.
(§5) Vigor--figures represent percent of plants showing decreased vigor.
(§6) Phytotoxicity--figures represent the average percent of chlorosis, necrosis, and vigor for a given sample.
(§7) The method of Example 1 was used except that the enzyme was applied 2 hours prior to administering the agricultural chemical with the following results. Ratings were done two weeks after treatment

Soybeans = details: one week after treatment
Excerpt: as §1, §2, §3, §4, §5, §6, §7

Giant Fox Tail = details: HYVAR 18%, two weeks after treatment
Barnyard Grass = system: Barnyard Grass
Procedure: as §1
as §2, with “The herbicides were applied to various plants at the manufacturers recommended doses and at 10% and 40% of the recommended dose.” left out, “Ratings were done at 6 and 12 days after the treatment.” left out
as §3, §4, §5, §6

[1] = HYVAR 10% dose, High Enzyme, one week after treatment
[2] = HYVAR 10% dose, Low Enzyme, one week after treatment
[3] = HYVAR 10% dose, No Enzyme, one week after treatment
[4] = HYVAR 18%, High Enzyme, two weeks after treatment
[5] = HYVAR 18%, Low Enzyme, two weeks after treatment
[6] = HYVAR 18%, No Enzyme, two weeks after treatment
[7] = HYVAR 40% dose, High Enzyme, one week after treatment
[8] = HYVAR 40% dose, Low Enzyme, one week after treatment
[9] = HYVAR 40% dose, No Enzyme, one week after treatment
[10] = HYVAR 100% dose, No Enzyme, one week after treatment

CCC(C)n1c(=O)[nH]c(C)c(Br)c1=O (stereo not drawn) [HYVAR, 5-bromo-6-methyl-3-(1-methylpropyl)-2,4-(1H,3H)-pyrimidinedione]
CK (chlorosis) (Turnip; HYVAR 10% dose, High Enzyme): 50% | NEC (necrosis) (Turnip; HYVAR 10% dose, High Enzyme): 85% | PHY (phytotoxicity) (Turnip; HYVAR 10% dose, High Enzyme): 73% | VIG (vigor) (Turnip; HYVAR 10% dose, High Enzyme): 83% | CK (chlorosis) (Turnip; HYVAR 10% dose, Low Enzyme): 70% | NEC (necrosis) (Turnip; HYVAR 10% dose, Low Enzyme): 90% | PHY (phytotoxicity) (Turnip; HYVAR 10% dose, Low Enzyme): 84% | VIG (vigor) (Turnip; HYVAR 10% dose, Low Enzyme): 93% | CK (chlorosis) (Turnip; HYVAR 10% dose, No Enzyme): 70% | NEC (necrosis) (Turnip; HYVAR 10% dose, No Enzyme): 93% | PHY (phytotoxicity) (Turnip; HYVAR 10% dose, No Enzyme): 84% | VIG (vigor) (Turnip; HYVAR 10% dose, No Enzyme): 90% | CK (chlorosis) (Turnip; HYVAR 40% dose, High Enzyme): 97% | NEC (necrosis) (Turnip; HYVAR 40% dose, High Enzyme): 97% | PHY (phytotoxicity) (Turnip; HYVAR 40% dose, High Enzyme): 97% | VIG (vigor) (Turnip; HYVAR 40% dose, High Enzyme): 98% | CK (chlorosis) (Turnip; HYVAR 40% dose, Low Enzyme): 93% | NEC (necrosis) (Turnip; HYVAR 40% dose, Low Enzyme): 95% | PHY (phytotoxicity) (Turnip; HYVAR 40% dose, Low Enzyme): 94% | VIG (vigor) (Turnip; HYVAR 40% dose, Low Enzyme): 95% | CK (chlorosis) (Turnip; HYVAR 40% dose, No Enzyme): 65% | NEC (necrosis) (Turnip; HYVAR 40% dose, No Enzyme): 73% | PHY (phytotoxicity) (Turnip; HYVAR 40% dose, No Enzyme): 74% | VIG (vigor) (Turnip; HYVAR 40% dose, No Enzyme): 85% | CK (chlorosis) (Turnip; HYVAR 100% dose, No Enzyme): 100% | NEC (necrosis) (Turnip; HYVAR 100% dose, No Enzyme): 95% | PHY (phytotoxicity) (Turnip; HYVAR 100% dose, No Enzyme): 95% | VIG (vigor) (Turnip; HYVAR 100% dose, No Enzyme): 90% | CHL (chlorosis) (Soybeans; HYVAR 10% dose, High Enzyme): 25% | NEC (necrosis) (Soybeans; HYVAR 10% dose, High Enzyme): 50% | PHY (phytotoxicity) (Soybeans; HYVAR 10% dose, High Enzyme): 42% | VIG (vigor) (Soybeans; HYVAR 10% dose, High Enzyme): 50% | CHL (chlorosis) (Soybeans; HYVAR 10% dose, Low Enzyme): 90% | NEC (necrosis) (Soybeans; HYVAR 10% dose, Low Enzyme): 83% | PHY (phytotoxicity) (Soybeans; HYVAR 10% dose, Low Enzyme): 88% | VIG (vigor) (Soybeans; HYVAR 10% dose, Low Enzyme): 90% | CHL (chlorosis) (Soybeans; HYVAR 10% dose, No Enzyme): 55% | NEC (necrosis) (Soybeans; HYVAR 10% dose, No Enzyme): 75% | PHY (phytotoxicity) (Soybeans; HYVAR 10% dose, No Enzyme): 68% | VIG (vigor) (Soybeans; HYVAR 10% dose, No Enzyme): 75% | CHL (chlorosis) (Soybeans; HYVAR 40% dose, High Enzyme): 45% | NEC (necrosis) (Soybeans; HYVAR 40% dose, High Enzyme): 50% | PHY (phytotoxicity) (Soybeans; HYVAR 40% dose, High Enzyme): 59% | VIG (vigor) (Soybeans; HYVAR 40% dose, High Enzyme): 83% | CHL (chlorosis) (Soybeans; HYVAR 40% dose, Low Enzyme): 55% | NEC (necrosis) (Soybeans; HYVAR 40% dose, Low Enzyme): 88% | PHY (phytotoxicity) (Soybeans; HYVAR 40% dose, Low Enzyme): 72% | VIG (vigor) (Soybeans; HYVAR 40% dose, Low Enzyme): 73% | CHL (chlorosis) (Soybeans; HYVAR 40% dose, No Enzyme): 45% | NEC (necrosis) (Soybeans; HYVAR 40% dose, No Enzyme): 60% | PHY (phytotoxicity) (Soybeans; HYVAR 40% dose, No Enzyme): 39% | VIG (vigor) (Soybeans; HYVAR 40% dose, No Enzyme): 73% | CHL (chlorosis) (Soybeans; HYVAR 100% dose, No Enzyme): 100% | NEC (necrosis) (Soybeans; HYVAR 100% dose, No Enzyme): 100% | PHY (phytotoxicity) (Soybeans; HYVAR 100% dose, No Enzyme): 100% | VIG (vigor) (Soybeans; HYVAR 100% dose, No Enzyme): 100% | CHL (chlorosis) (Giant Fox Tail; High Enzyme): 75% | NEC (necrosis) (Giant Fox Tail; Low Enzyme): 73% | VIG (vigor) (Giant Fox Tail; Low Enzyme): 73% | CHL (chlorosis) (Barnyard Grass; [1]): 25% | NEC (necrosis) (Barnyard Grass; [1]): 10% | PHY (phytotoxicity) (Barnyard Grass; [1]): 28% | VIG (vigor) (Barnyard Grass; [1]): 50% | CHL (chlorosis) (Barnyard Grass; [2]): 50% | NEC (necrosis) (Barnyard Grass; [2]): 18% | PHY (phytotoxicity) (Barnyard Grass; [2]): 39% | VIG (vigor) (Barnyard Grass; [2]): 50% | CHL (chlorosis) (Barnyard Grass; [3]): 30% | NEC (necrosis) (Barnyard Grass; [3]): 25% | PHY (phytotoxicity) (Barnyard Grass; [3]): 28% | VIG (vigor) (Barnyard Grass; [3]): 30% | CHL (chlorosis) (Barnyard Grass; [4]): 95% | NEC (necrosis) (Barnyard Grass; [4]): 88% | PHY (phytotoxicity) (Barnyard Grass; [4]): 90% | VIG (vigor) (Barnyard Grass; [4]): 88% | CHL (chlorosis) (Barnyard Grass; [5]): 88% | NEC (necrosis) (Barnyard Grass; [5]): 85% | PHY (phytotoxicity) (Barnyard Grass; [5]): 86% | VIG (vigor) (Barnyard Grass; [5]): 85% | CHL (chlorosis) (Barnyard Grass; [6]): 85% | NEC (necrosis) (Barnyard Grass; [6]): 78% | PHY (phytotoxicity) (Barnyard Grass; [6]): 80% | VIG (vigor) (Barnyard Grass; [6]): 78% | CHL (chlorosis) (Barnyard Grass; [7]): 55% | NEC (necrosis) (Barnyard Grass; [7]): 50% | PHY (phytotoxicity) (Barnyard Grass; [7]): 45% | VIG (vigor) (Barnyard Grass; [7]): 30% | CHL (chlorosis) (Barnyard Grass; [8]): 55% | NEC (necrosis) (Barnyard Grass; [8]): 60% | PHY (phytotoxicity) (Barnyard Grass; [8]): 59% | VIG (vigor) (Barnyard Grass; [8]): 63% | CHL (chlorosis) (Barnyard Grass; [9]): 65% | NEC (necrosis) (Barnyard Grass; [9]): 30% | PHY (phytotoxicity) (Barnyard Grass; [9]): 50% | VIG (vigor) (Barnyard Grass; [9]): 55% | CHL (chlorosis) (Barnyard Grass; [10]): 50% | NEC (necrosis) (Barnyard Grass; [10]): 60% | PHY (phytotoxicity) (Barnyard Grass; [10]): 62% | VIG (vigor) (Barnyard Grass; [10]): 75%
